Where two headings read alike, the source gives them in different places.
Columns and labels:
[1] = system: E. coli K-12 cells (strain DH5); assay: Sterilization efficacy on LB agar plates loaded with E. coli in cell culture chamber; assay type: cell-based
Experimental: In tests #2 and #3, represented by lines 520 and 530, respectively, both the ozone generator and an ozone degrader were present in the cell culture chamber. The ozone degrader was formed of three activated carbon filters. With the ozone degrader present, the ozone generator was unable to achieve the peak ozone concentration seen in test #1. In tests #2 and #3, the ozone generator was run for 120 minutes and the concentration of ozone noticeably plateaued. The air within the cell culture chamber reached a peak ozone concentration of approximately 140-150 ppm ozone. After the ozone generator was turned off, the ozone began to break down at an accelerated rate with the activated carbon filters present. In both tests #2 and #3, the ozone levels reached a level of 0.01 ppm ozone within 15 minutes.
While the peak ozone concentrations reached in tests #2 and #3 were noticeably lower than the peak ozone concentration of test #1, the ozone levels in tests #2 and #3 were at least sufficient to achieve sterilization. In each of tests #2 and #3, sterilization efficacy was measured with the assistance of LB agar plates loaded with E. coli bacteria. As part of the experiment, E. coli K-12 cells (strain DH5) were grown overnight at 37° C. and the stationary phase was reached. […] The quantity of E. coli present was then analyzed and a photograph of each plate was taken.

[2] = system: bacteriophage T1; assay: Effect of ozone on bacteriophage T1 spotted on LB agar plates; assay type: cell-based; settings: ozone 4 hours, peak less than 150 ppm, silver-coated mesh generator; 10^6-10^9 pfu/mL spots; DH5 E. coli overlay, 72 hours
Experimental: In Experiment 2, the effect of ozone on bacteriophage T1 was studied. In the experiment, 2.5 μL of purified bacteriophage T1 was spotted in four quadrants of two LB agar plates—a test plate 610 and a control plate 620, shown in FIG. 11. The bacteriophage concentrations on each of the two plates were (clockwise from the spot in the upper right quadrant): 10^9 pfu/mL, 10^8 pfu/mL, 10^7 pfu/mL, and 10^6 pfu/mL.
The test plate 610 was placed in an incubator chamber containing both an ozone generator and an ozone degrader. The ozone generator included two ceramic plates surrounded substantially by a silver-coated metal mesh. The ozone generator was activated and the test plate 610 was treated with ozone for 4 hours. The ozone generator was then turned off, and the ozone degrader, formed of activated carbon filters, accelerated the conversion of ozone to oxygen. The peak ozone concentration level generated within the incubator chamber was less than 150 ppm ozone.
The control plate 620 was placed in a different incubator chamber and left untreated. After the ozone generation and degradation cycle completed in the incubator chamber containing the test plate 610, 1 mL of stationary DH5 E. coli bacteria and top agar were added to each plate and incubated at room temperature for 72 hours. The photograph in FIG. 11 was taken immediately following this 72-hour period.

[3] = Ozone breakdown over time in enclosed cell culture chamber (calibrated ozone analyzer); assay type: physicochemical
Experimental: In Experiment 1, an 1800 mg/hour ozone generator was placed in a 5.5 cubic feet cell culture. The ozone level within the chamber was monitored using a calibrated ozone analyzer. Ozone measurements were captured every 10 seconds. The experimental results, as represented by ozone level over time, are provided in the line graph of FIG. 10A. In test #1, represented by line 510, the ozone generator was run for 80 minutes and achieved a peak ozone concentration within the cell culture chamber of approximately 325 ppm. After the ozone generator was turned off, the ozone was left to break down naturally within the enclosed cell culture chamber. It took approximately 28 hours for the ozone to breakdown to 0.01 ppm ozone.
In tests #2 and #3, represented by lines 520 and 530, respectively, both the ozone generator and an ozone degrader were present in the cell culture chamber. The ozone degrader was formed of three activated carbon filters. With the ozone degrader present, the ozone generator was unable to achieve the peak ozone concentration seen in test #1. In tests #2 and #3, the ozone generator was run for 120 minutes and the concentration of ozone noticeably plateaued. The air within the cell culture chamber reached a peak ozone concentration of approximately 140-150 ppm ozone. […]

[4] = cited from earlier work

Structure (SMILES): O=[O+][O-] [ozone]
- E. coli kill rate ([1]; test #2, ozone 120 minutes, peak approximately 140-150 ppm, then 15 minutes degradation, plates incubated at 37° C. overnight): 100%
- quantity of E. coli present after treatment ([1]; test #2 test dish, control dish showed confluent growth): no E. coli was detected
- survival of the T1-phage [2]: negligible survival
- time for ozone to break down to 0.01 ppm ([3]; test #1, natural breakdown from approximately 325 ppm, no ozone degrader, 5.5 cubic feet chamber): approximately 28 hours
- time for ozone levels to reach 0.01 ppm ([3]; tests #2 and #3, from approximately 140-150 ppm, three activated carbon filters present): ≤ 15 min
- half-life ([4]; in the air): 36 to 72 h
- half-life ([4]; in water): 0.13 to 0.5 h
